The source made the active and inactive calls. No cut-off for these calls is given here.
Columns and labels:
[1] = target: T1, Serine/threonine-protein kinase TAO3 (Homo sapiens) (UniProt Q9H2K8); experiment: Inhibition of TAO3 in human NCI-H929 cells at 10 uM by mass spectroscopic analysis relative to control; format: cell-based
T1 sequence (whole entry): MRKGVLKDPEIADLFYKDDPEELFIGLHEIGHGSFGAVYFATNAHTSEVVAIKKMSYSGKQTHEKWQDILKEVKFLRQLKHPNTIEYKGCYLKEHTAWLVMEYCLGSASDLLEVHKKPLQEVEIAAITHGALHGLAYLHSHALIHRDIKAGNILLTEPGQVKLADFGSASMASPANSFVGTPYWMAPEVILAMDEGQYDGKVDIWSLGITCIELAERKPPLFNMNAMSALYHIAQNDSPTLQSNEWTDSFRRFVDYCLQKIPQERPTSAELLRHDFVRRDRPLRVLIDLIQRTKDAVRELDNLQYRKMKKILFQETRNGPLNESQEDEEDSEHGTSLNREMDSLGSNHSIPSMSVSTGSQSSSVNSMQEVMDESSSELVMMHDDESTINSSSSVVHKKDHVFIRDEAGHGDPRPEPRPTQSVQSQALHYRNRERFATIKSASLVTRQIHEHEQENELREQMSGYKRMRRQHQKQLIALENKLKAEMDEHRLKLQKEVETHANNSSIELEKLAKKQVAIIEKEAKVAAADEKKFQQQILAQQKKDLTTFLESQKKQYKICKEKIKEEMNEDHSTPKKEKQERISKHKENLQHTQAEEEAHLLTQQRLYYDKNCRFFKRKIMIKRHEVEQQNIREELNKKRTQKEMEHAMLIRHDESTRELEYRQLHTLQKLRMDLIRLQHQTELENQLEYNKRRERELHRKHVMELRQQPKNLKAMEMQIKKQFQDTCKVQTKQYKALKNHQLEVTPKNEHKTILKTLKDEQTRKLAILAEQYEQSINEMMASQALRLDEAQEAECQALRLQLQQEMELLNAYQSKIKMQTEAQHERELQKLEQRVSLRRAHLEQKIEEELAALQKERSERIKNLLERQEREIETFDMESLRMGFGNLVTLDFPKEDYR

[2] = target: Tyrosine-protein kinase ABL2 (Homo sapiens) (UniProt P42684); experiment: Inhibition of ARG in human NCI-H929 cells at 10 uM by mass spectroscopic analysis relative to control; format: cell-based
[3] = target: Cyclin-dependent kinase 8 (Homo sapiens) (UniProt P49336); experiment: Inhibition of CDK8 in human NCI-H929 cells at 10 uM by mass spectroscopic analysis relative to control; format: cell-based
[4] = target: Microtubule-associated serine/threonine-protein kinase 1 (Homo sapiens) (UniProt Q9Y2H9); experiment: Inhibition of MAST1 in human NCI-H929 cells at 10 uM by mass spectroscopic analysis relative to control; format: cell-based
[5] = target: Microtubule-associated serine/threonine-protein kinase 2 (Homo sapiens) (UniProt Q6P0Q8); experiment: Inhibition of MAST2 in human NCI-H929 cells at 10 uM by mass spectroscopic analysis relative to control; format: cell-based
[6] = target: Bone morphogenetic protein receptor type-1B (Homo sapiens) (UniProt O00238); experiment: Inhibition of BMPR1B in human NCI-H929 cells at 10 uM by mass spectroscopic analysis relative to control; format: cell-based
[7] = target: T2, Serine/threonine-protein kinase TAO1 (Homo sapiens) (UniProt Q7L7X3); experiment: Inhibition of TAO1 in human NCI-H929 cells at 10 uM by mass spectroscopic analysis relative to control; format: cell-based
T2 sequence (whole entry): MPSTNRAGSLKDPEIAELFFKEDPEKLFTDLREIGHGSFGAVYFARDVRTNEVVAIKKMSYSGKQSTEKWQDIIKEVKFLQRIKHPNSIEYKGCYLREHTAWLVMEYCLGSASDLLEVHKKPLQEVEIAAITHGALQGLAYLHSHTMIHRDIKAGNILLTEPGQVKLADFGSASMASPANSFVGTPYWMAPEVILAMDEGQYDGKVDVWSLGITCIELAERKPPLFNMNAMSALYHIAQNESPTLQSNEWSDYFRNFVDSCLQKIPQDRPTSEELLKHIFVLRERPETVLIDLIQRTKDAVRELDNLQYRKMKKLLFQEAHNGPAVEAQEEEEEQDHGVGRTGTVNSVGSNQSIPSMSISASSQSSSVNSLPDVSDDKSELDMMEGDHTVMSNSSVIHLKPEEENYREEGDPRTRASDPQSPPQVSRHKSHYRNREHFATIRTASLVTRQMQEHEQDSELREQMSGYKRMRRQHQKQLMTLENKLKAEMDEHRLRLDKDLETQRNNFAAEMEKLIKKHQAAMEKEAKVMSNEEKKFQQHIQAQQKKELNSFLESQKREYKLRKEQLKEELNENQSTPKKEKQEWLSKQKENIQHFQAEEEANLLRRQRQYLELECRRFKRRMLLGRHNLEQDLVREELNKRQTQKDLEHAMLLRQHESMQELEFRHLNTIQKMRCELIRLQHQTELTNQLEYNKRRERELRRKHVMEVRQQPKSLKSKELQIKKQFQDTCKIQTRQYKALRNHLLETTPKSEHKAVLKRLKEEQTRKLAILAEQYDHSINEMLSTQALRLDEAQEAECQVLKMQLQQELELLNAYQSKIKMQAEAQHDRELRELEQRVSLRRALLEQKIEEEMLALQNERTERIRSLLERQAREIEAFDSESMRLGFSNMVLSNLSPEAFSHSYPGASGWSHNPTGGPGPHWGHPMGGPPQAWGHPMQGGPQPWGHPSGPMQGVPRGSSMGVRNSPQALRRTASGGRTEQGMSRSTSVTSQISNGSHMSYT

[8] = target: Cyclin-dependent kinase 19 (Homo sapiens) (UniProt Q9BWU1); experiment: Inhibition of CDK11 in human NCI-H929 cells at 10 uM by mass spectroscopic analysis relative to control; format: cell-based
[9] = target: 5'-AMP-activated protein kinase catalytic subunit alpha-1 (Homo sapiens) (UniProt Q13131); experiment: Inhibition of AMPKa1 in human NCI-H929 cells at 10 uM by mass spectroscopic analysis relative to control; format: cell-based
[10] = test system: MM1.S; experiment: Upregulation of YAP1 protein level in human MM1.S cells at 1 uM measured after 16 hrs by Western blot analysis; format: functional, cell-based
[11] = target: Calcium/calmodulin-dependent protein kinase kinase 2 (Homo sapiens) (UniProt Q96RR4); experiment: Inhibition of CAMKK2 in human NCI-H929 cells at 10 uM by mass spectroscopic analysis relative to control; format: cell-based
[12] = target: RAC-gamma serine/threonine-protein kinase (Homo sapiens) (UniProt Q9Y243); experiment: Inhibition of AKT3 in human NCI-H929 cells at 10 uM by mass spectroscopic analysis relative to control; format: cell-based
[13] = test system: MM1.S; experiment: Downregulation of phosphorylated-MOB1 protein level in human MM1.S cells at 1 to 10 uM measured after 6 hrs by Western blot analysis; format: functional, cell-based; details: dose 1-10 µM
[14] = target: Rho-associated protein kinase 1 (Homo sapiens) (UniProt Q13464); experiment: Inhibition of ROCK1 in human NCI-H929 cells at 10 uM by mass spectroscopic analysis relative to control; format: cell-based

RAC-gamma serine/threonine-protein kinase (Homo sapiens), sequence (Q9Y243 whole entry): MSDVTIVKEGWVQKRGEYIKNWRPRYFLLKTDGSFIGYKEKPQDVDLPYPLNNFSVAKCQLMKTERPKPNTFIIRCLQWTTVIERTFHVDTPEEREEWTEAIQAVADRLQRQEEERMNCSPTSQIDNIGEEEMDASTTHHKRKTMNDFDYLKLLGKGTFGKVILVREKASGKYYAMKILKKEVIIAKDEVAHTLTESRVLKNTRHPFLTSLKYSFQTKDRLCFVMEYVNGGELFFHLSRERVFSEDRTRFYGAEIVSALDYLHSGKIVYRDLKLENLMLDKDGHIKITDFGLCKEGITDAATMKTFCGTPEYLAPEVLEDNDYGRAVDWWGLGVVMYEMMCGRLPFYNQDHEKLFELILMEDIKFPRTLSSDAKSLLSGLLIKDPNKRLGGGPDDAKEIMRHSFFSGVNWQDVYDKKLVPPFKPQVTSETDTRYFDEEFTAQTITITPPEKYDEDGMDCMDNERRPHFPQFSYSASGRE
Microtubule-associated serine/threonine-protein kinase 2 (Homo sapiens), sequence (Q6P0Q8 whole entry): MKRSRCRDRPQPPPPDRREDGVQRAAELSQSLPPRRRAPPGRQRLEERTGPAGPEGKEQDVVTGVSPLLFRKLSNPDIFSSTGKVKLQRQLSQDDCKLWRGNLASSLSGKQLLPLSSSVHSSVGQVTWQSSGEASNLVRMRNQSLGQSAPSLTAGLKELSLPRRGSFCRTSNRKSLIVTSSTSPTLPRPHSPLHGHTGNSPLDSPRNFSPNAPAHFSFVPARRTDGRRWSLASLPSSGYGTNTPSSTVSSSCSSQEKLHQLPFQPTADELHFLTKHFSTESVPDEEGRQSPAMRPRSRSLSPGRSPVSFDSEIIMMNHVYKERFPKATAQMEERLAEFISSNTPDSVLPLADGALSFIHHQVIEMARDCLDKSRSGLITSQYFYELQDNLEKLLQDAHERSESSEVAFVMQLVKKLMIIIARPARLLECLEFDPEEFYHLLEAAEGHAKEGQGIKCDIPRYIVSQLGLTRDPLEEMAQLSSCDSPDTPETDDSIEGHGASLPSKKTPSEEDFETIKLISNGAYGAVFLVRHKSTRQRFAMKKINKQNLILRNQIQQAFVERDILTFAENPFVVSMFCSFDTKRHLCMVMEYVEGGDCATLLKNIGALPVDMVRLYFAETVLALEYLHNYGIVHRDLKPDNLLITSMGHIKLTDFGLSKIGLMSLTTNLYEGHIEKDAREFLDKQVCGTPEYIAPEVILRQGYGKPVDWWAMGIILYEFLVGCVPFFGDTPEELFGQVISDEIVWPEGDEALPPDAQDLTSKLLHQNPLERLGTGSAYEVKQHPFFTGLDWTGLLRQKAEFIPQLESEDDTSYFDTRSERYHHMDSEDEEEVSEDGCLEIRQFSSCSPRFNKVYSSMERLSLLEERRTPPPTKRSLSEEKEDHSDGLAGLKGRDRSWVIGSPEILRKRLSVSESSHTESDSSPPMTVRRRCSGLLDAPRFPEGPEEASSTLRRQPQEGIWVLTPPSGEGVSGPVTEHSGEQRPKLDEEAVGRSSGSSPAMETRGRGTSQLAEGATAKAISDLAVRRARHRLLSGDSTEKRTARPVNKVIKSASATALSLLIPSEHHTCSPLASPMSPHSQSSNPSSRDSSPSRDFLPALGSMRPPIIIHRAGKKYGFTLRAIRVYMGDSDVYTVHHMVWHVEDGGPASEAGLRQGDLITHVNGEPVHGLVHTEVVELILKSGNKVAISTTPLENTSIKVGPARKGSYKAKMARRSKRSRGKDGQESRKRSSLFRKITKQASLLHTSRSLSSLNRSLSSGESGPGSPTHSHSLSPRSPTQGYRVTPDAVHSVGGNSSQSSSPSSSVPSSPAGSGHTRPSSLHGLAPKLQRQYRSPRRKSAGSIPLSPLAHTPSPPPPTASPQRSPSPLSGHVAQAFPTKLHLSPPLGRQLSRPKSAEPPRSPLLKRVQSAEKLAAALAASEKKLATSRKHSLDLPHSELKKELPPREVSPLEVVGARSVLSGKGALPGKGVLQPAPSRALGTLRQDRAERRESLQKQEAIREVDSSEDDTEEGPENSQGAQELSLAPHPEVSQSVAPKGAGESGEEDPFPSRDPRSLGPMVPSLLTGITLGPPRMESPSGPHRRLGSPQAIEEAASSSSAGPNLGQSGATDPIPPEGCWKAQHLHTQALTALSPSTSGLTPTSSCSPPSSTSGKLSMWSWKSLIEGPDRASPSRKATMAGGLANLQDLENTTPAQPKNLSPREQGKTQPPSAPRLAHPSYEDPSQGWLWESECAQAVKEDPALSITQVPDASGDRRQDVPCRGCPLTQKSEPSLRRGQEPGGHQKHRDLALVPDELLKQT
Microtubule-associated serine/threonine-protein kinase 1 (Homo sapiens), sequence (Q9Y2H9 whole entry, looked up): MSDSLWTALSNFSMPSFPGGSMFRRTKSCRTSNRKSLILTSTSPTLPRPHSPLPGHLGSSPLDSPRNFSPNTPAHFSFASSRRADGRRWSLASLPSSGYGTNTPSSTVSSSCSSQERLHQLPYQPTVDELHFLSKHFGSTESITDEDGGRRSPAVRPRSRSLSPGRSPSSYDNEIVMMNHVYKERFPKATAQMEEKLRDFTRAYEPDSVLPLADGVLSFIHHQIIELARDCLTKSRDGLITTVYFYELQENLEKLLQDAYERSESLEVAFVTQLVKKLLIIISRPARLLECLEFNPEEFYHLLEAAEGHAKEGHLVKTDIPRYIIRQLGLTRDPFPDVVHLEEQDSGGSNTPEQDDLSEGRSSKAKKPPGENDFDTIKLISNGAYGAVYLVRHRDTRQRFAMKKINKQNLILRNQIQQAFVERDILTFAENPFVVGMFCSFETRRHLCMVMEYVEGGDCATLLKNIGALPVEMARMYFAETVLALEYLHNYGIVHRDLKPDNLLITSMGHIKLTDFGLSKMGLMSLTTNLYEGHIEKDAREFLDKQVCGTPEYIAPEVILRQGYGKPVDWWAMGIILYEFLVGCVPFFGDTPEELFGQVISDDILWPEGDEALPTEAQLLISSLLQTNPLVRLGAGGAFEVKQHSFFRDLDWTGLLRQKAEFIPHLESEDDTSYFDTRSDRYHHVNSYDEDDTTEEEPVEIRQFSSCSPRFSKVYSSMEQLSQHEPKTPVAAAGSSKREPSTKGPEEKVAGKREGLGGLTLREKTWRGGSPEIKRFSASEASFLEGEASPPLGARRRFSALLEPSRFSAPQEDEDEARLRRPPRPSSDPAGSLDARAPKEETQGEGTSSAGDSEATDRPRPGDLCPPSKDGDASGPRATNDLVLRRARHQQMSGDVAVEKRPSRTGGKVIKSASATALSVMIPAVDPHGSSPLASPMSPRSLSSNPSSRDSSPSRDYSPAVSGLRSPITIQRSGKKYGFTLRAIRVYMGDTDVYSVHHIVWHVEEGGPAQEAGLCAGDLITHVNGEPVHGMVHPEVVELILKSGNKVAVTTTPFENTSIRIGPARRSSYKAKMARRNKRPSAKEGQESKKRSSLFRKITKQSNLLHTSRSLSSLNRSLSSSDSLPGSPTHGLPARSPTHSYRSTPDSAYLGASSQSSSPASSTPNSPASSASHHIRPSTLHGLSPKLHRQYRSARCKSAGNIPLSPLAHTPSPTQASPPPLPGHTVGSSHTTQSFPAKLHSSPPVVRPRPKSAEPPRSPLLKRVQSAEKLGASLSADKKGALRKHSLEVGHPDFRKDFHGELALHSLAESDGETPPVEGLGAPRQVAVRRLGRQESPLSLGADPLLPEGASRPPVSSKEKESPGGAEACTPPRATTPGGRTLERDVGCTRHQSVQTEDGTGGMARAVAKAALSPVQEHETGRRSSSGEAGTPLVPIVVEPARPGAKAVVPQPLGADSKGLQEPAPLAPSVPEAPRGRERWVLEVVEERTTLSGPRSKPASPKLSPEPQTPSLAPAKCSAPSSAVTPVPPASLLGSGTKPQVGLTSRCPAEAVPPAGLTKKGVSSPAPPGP
Bone morphogenetic protein receptor type-1B (Homo sapiens), sequence (O00238 whole entry): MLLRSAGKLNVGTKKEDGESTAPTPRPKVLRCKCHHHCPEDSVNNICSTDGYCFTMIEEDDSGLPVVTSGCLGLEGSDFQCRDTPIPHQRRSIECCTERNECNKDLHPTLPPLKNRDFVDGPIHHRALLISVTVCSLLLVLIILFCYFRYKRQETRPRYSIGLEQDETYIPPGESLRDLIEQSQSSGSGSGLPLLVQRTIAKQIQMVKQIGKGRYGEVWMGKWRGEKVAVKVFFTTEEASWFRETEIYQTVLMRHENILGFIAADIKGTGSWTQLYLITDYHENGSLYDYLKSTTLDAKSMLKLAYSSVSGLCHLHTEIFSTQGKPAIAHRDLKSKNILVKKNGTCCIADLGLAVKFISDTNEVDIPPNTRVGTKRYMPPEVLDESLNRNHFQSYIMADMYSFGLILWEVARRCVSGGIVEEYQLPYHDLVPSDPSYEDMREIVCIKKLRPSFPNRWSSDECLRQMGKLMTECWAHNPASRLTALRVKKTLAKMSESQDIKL
Calcium/calmodulin-dependent protein kinase kinase 2 (Homo sapiens), sequence (Q96RR4 2-588 limits assumed): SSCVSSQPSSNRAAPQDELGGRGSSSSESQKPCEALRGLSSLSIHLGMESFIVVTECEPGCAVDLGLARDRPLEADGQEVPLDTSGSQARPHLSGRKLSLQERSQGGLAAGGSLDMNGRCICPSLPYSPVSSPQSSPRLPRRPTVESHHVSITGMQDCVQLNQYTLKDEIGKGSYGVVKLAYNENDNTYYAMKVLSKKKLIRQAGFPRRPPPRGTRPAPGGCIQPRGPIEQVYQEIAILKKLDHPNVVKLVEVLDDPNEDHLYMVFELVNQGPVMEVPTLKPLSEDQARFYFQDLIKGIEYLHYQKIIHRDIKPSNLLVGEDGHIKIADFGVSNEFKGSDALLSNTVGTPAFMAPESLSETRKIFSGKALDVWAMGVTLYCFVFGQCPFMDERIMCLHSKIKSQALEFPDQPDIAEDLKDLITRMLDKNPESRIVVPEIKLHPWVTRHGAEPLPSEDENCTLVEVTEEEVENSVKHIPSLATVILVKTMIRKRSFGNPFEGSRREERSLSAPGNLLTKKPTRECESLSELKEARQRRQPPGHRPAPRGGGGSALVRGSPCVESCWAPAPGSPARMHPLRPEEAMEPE

In the case of Nc1ncc(-c2ccc(NS(=O)(=O)C3CC3)cc2OC2CCCCC2)cc1-c1ccc2c(c1)CCNC2=O, the inhibition [1] is reported as 0%, the inhibition [2] is reported as 0% and the inhibition [3] is reported as 0%. For the same molecule, the inhibition [4] was 0%, the inhibition [5] was 0% and the inhibition [6] was greater than 90%. For the same molecule, the inhibition [7] was 0% and the inhibition [8] was 0%.

In the case of Nc1ncc(-c2cccc3ncsc23)cc1-c1ccc2c(c1)CCNC2=O, the inhibition [1] is reported as 0%, the inhibition [9] is reported as 0% and the Activity [10] is reported as “Active”. It also gave an inhibition [2] of 50%, an inhibition [11] of 50% and an inhibition [12] of 0%. For the same molecule, the Activity [13] was “Active”, the inhibition [14] was 0% and the inhibition [3] was 50%. The inhibition [7] was 0% and the inhibition [8] was 50%.

For COc1cc(NS(=O)(=O)C2CC2)ccc1-c1cnc(N)c(-c2ccc3c(c2)CCNC3=O)c1, the inhibition [1] was 0%, the inhibition [9] was 0% and the inhibition [2] was 0%. For the same molecule, the inhibition [11] was 0%, the inhibition [3] was 0% and the inhibition [4] was 0%. For the same molecule, the inhibition [5] was 0%, the inhibition [6] was 75% and the inhibition [7] was 0%.

CN(C1CC1)S(=O)(=O)c1ccc(-c2cnc(N)c(-c3ccc4c(c3)CCNC4=O)c2)c(F)c1 was tested, and the inhibition [9] was 0%, the Activity [10] was “Active” and the inhibition [2] was 0%. For the same molecule, the inhibition [11] was 50%, the inhibition [12] was 0% and the Activity [13] was “Active”. It also gave an inhibition [14] of 0%, an inhibition [3] of 0% and an inhibition [8] of 0%.

In the case of Nc1ncc(-c2cccc([N+](=O)[O-])c2F)cc1-c1ccc2c(c1)CCNC2=O, the Activity [10] is reported as “Active”, the inhibition [12] is reported as 0% and the Activity [13] is reported as “Active”. It also gave an inhibition [14] of 0%.

In the case of Nc1ncc(-c2ccc(NS(=O)(=O)C3CC3)cc2F)cc1-c1ccc2c(c1)CCNC2=O, the inhibition [9] is reported as 0%, the inhibition [2] is reported as 0% and the inhibition [3] is reported as 0%. For the same molecule, the inhibition [4] was 0%, the inhibition [5] was 0% and the inhibition [6] was 0%. The inhibition [8] was 0%.

Source: ChEMBL document CHEMBL4804281, “STK4 inhibitors for treatment of hematologic malignancies” (2020)
